Assay results from patent EP1077981B1, “NOVEL CEPHALOSPORIN COMPOUNDS, PROCESSES FOR PREPARATION THEREOF AND ANTIMICROBIAL COMPOSITIONS CONTAINING THE SAME” (LG CHEMICAL LIMITED, priority 1998, dated 1999).
Converted amounts (≈) assume the structure as drawn.

Key:
Experiment in all cases: MIC against standard strains (agar dilution)
Type in all cases: cell-based
[1] = system: Staphylococcus aureus 6538p; conditions: Staphylococcus aureus 6538p; Mueller-Hinton agar, 20 hours at 37°C; read-out: MIC
Procedure, shortened: (§1)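 Minimum inhibitory concentrations come from Mueller-Hinton agar plates with 2-fold compound dilutions, inoculated at 10^7 cfu/mℓ and held 20 hours at 37°C.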

Escherichia coli 10536 = conditions: Escherichia coli 10536; Mueller-Hinton agar, 20 hours at 37°C; read-out: MIC
Procedure, shortened: as §1

[2] = system: Serratia marcescens 1826E; conditions: Serratia marcescens 1826E; Mueller-Hinton agar, 20 hours at 37°C; read-out: MIC
Procedure, shortened: as §1

[3] = system: Staphylococcus aureus 241; conditions: Staphylococcus aureus 241; Mueller-Hinton agar, 20 hours at 37°C; read-out: MIC
Procedure, shortened: as §1

[4] = system: Morganella morganii 1375E; conditions: Morganella morganii 1375E; Mueller-Hinton agar, 20 hours at 37°C; read-out: MIC
Procedure, shortened: as §1

[5] = system: Enterobacter cloacae IND+VE 1194E; conditions: Enterobacter cloacae IND+VE 1194E; Mueller-Hinton agar, 20 hours at 37°C; read-out: MIC
Procedure, shortened: as §1

[6] = system: Staphylococcus epidermidi 887E; conditions: Staphylococcus epidermidi 887E; Mueller-Hinton agar, 20 hours at 37°C; read-out: MIC
Procedure, shortened: as §1

[7] = system: Pseudomonas aeruginosa 6065Y; conditions: Pseudomonas aeruginosa 6065Y; Mueller-Hinton agar, 20 hours at 37°C; read-out: MIC
Procedure, shortened: as §1

[8] = system: Acinetobacter calcoaceticu 15473; conditions: Acinetobacter calcoaceticu 15473; Mueller-Hinton agar, 20 hours at 37°C; read-out: MIC
Procedure, shortened: as §1

[9] = system: Escherichia coli TEM9 2639E; conditions: TEM92639E; Escherichia coli TEM9 2639E; Mueller-Hinton agar, 20 hours at 37°C; read-out: MIC
Procedure, shortened: as §1

CO/N=C(\C(=O)NC1C(=O)N2C(C(=O)O)=C(Sc3cc(N)nc(N)n3)CSC12)c1csc(N)n1 (stereo not shown) [Compound No. 25, 7-[(Z)-2-(2-amino-thiazol-4-yl)-2-methoxyimino-acetylamino]-3-(2,6-diamino-pyrimidin-4-ylsulfanyl)-8-oxo-5-thia-1-azabicyclo[4,2,0]oct-2-ene-2-carboxylic acid]
MIC [1]: 1 µg/mL (≈ 1.91 µM)
MIC (Escherichia coli 10536): 0.063 µg/mL (≈ 0.12 µM)
MIC [2]: 2 µg/mL (≈ 3.82 µM)
MIC [3]: 8 µg/mL (≈ 15.3 µM)
MIC [4]: 0.13 µg/mL (≈ 0.248 µM)
MIC [5]: > 64 µg/mL
MIC [6]: 8 µg/mL (≈ 15.3 µM)
MIC [7]: 64 µg/mL (≈ 122 µM)
MIC [8]: 64 µg/mL (≈ 122 µM)
MIC [9]: 32 µg/mL (≈ 61.1 µM)
